Measured values reported in patent US20100255580A1, “Differentiation of Human Embryonic Stem Cells” (LIFESCCAN, INC., priority 2007, published 2010).

Test system: H9 embryonic stem cells
Assay: Immunofluorescence staining of DE markers +/- Wnt-3a (Example 27)
Assay type: cell-based, human
Settings: 20 ng/ml Wnt-3a; Day 5 DE cultures
From the text: Day 5 DE cultures of H9 cells were stained according to Example 10 for SOX-17, HNF-3B, GATA-4, N-cadherin, and E-cadherin. All nuclei were counter stained with DAPI.

Wnt-3a
expression of N-cadherin: enhanced expression
expression of e-cadherin: significant loss
nuclei stained positive for SOX-17, HNF-3beta. and GATA-4: significantly larger number
